From patent US9617283B2, “Bicyclic heterocycle compounds and their uses in therapy” (ASTEX THERAPEUTICS LIMITED, priority 2012, dated 2017)
pEC50: −log10 of the molar value. Counter-ions that a name gives are not always drawn. Like-named read-outs stand apart in the source and are kept apart here.

How the values were obtained:
[1] = test system: EVSA-T (human breast carcinoma); experiment: Anti-proliferative activity, Alamar Blue assay, EVSA-T; format: cell-based
[2] = target: T1, BIR3 domain of human XIAP (residues 252-350) (Homo sapiens, UniProt P98170); experiment: XIAP in vitro competitive displacement binding assay (fluorescence polarization); details: 1 h, percent inhibition (PI) at 0.04 μM; read-out: Xiap IC50 or PI μM
T1 construct: BIR3 domain of human XIAP (residues 252-350); His-tag (cleaved yes); made in house; host or cells: Escherichia coli

[3] = Homo sapiens, EVSA-T, 72 h, EVSA-T cell line, 72 hours, Alamar Blue; read-out: EVSA-T prolif
[4] = Homo sapiens, EVSA-T; read-out: EC50 in EVSA-T cell line assays
[5] = EVSA-T cell line, 72 hours, Alamar Blue; dihydrochloride; read-out: EVSA-T prolif
[6] = Homo sapiens; EVSA-T cell line, 72 hours, Alamar Blue; read-out: EVSA-T prolif

T1 sequence (P98170 252-350): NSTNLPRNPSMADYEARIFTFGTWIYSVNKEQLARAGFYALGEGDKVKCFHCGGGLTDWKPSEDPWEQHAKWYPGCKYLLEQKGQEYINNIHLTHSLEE

Row | Structure (SMILES) | pEC50 [1, 3] | pEC50 [1, 4] | inhibition at 0.04 µM [2] | pEC50 [1, 5] | pEC50 ([1]; Homo sapiens, EVSA-T, read-out: EC50 in EVSA-T cell line assays) | pEC50 [1, 6]
1 | C[C@@H]1CN(CC(=O)N2CC(C)(C)c3cnc(Cc4ccc(F)cc4)cc32)[C@@H](CN2C[C@H](C)OCC2=O)CN1 (single isomer, unassigned) [Example 18, (6R or 6S)-4-{[(2R,5R)-1-(2-{6-[(4-Fluorophenyl)methyl]-3,3-dimethyl-1H,2H,3H-pyrrolo[3,2-c]pyridin-1-yl}-2-oxoethyl)-5-methylpiperazin-2-yl]methyl}-6-methylmorpholin-3-one L-lactate] | 8.46 | > 6.00 | 70% | – | – | –
2 | C[C@@H]1CN(CC(=O)N2CC(C)(C)c3ncc(Cc4ccc(F)cc4F)cc32)[C@@H](CN2C[C@H](C)OCC2=O)CN1 (single isomer, unassigned) [Example 23, (6R or 6S)-4-{[(2R,5R)-1-(2-{6-[(2,4-Difluorophenyl)methyl]-3,3-dimethyl-1H,2H,3H-pyrrolo[3,2-b]pyridin-1-yl}-2-oxoethyl)-5-methylpiperazin-2-yl]methyl}-6-methylmorpholin-3-one, dihydrochloride] | 8.55 | > 6.00 | 64% | – | – | –
3 | CCC1CN(C[C@H]2CN[C@H](C)CN2CC(=O)N2CC(C)(C)c3cnc(Cc4ccc(F)cc4F)cc32)C(=O)CO1 (single isomer, unassigned) [Example 80, 4-{[(2R,5R)-1-(2-{6-[(2,4-Difluorophenyl)methyl]-3,3-dimethyl-1H,2H,3H-pyrrolo[3,2-c]pyridin-1-yl}-2-oxoethyl)-5-methylpiperazin-2-yl]methyl}-(R or S)-6-ethylmorpholin-3-one dihydrochloride] | 8.74 | > 6.00 | 46% | – | – | –
4 | CCCC(O)c1cnc2c(c1)N(C(=O)CN1C[C@@H](C)NC[C@@H]1CN1Cc3ccccc3C1=O)CC2(C)C (single isomer, unassigned) [Example 90, dihydrochloride] | – | > 6.00 | 54% | 7.89 | – | –
5 | CCC1CN(C[C@H]2CN[C@H](C)CN2CC(=O)N2CC(C)(C)c3ncc([C@@H](O)c4ccc(F)cc4)cc32)C(=O)CO1 (single isomer, unassigned) [Example 110, (R or S)-6-ethyl-4-{[(2R,5R)-1-(2-{6-[(S)-(4-Fluorophenyl)(hydroxy)methyl]-3,3-dimethyl-1H,2H,3H-pyrrolo[3,2-b]pyridin-1-yl}-2-oxoethyl)-5-methylpiperazin-2-yl]methyl}morpholin-3-one dihydrochloride] | – | – | 48% | 6.54 | > 6.00 | –
6 | C[C@@H]1CN(CC(=O)N2CC(C)(C)c3ncc(Cc4ccc(F)cc4)cc32)[C@@H](CN2CC(C)(C)CC2=O)CN1 [Example 1, 1-{[(2R,5R)-1-(2-{6-[(4-Fluorophenyl)methyl]-3,3-dimethyl-1H,2H,3H-pyrrolo[3,2-b]pyridin-1-yl}-2-oxoethyl)-5-methylpiperazin-2-yl]methyl}-4,4-dimethylpyrrolidin-2-one dihydrochloride] | 8.66 | > 6.00 | 54% | – | – | –
7 | C[C@@H]1CN(CC(=O)N2CC(C)(C)c3ncc(Cc4ccc(F)cc4)cc32)[C@@H](CN2CCC(C)(C)C2=O)CN1 [Example 4, 1-{[(2R,5R)-1-(2-{6-[(4-Fluorophenyl)methyl]-3,3-dimethyl-1H,2H,3H-pyrrolo[3,2-b]pyridin-1-yl}-2-oxoethyl)-5-methylpiperazin-2-yl]methyl}-3,3-dimethylpyrrolidin-2-one dihydrochloride] | 8.52 | > 6.00 | 34% | – | – | –
8 | C[C@@H]1CN(CC(=O)N2CC(C)(C)c3ncc(Cc4ccc(F)cc4)cc32)[C@@H](CN2CC(C)(C)OC2=O)CN1 [Example 5, 3-{[(2R,5R)-1-(2-{6-[(4-Fluorophenyl)methyl]-3,3-dimethyl-1H,2H,3H-pyrrolo[3,2-b]pyridin-1-yl}-2-oxoethyl)-5-methylpiperazin-2-yl]methyl}-5,5-dimethyl-1,3-oxazolidin-2-one dihydrochloride] | 8.21 | > 6.00 | 44% | – | – | –
9 | CC1CC(=O)N(C[C@H]2CN[C@H](C)CN2CC(=O)N2CC(C)(C)c3ncc(Cc4ccc(F)cc4)cc32)C1 (stereo partly drawn) [Example 6, 1-{[(2R,5R)-1-(2-{6-[(4-Fluorophenyl)methyl]-3,3-dimethyl-1H,2H,3H-pyrrolo[3,2-b]pyridin-1-yl}-2-oxoethyl)-5-methylpiperazin-2-yl]methyl}-4-methylpyrrolidin-2-one dihydrochloride] | 8.96 | > 6.00 | 48% | – | – | –
10 | C[C@@H]1CN(CC(=O)N2CC(C)(C)c3ncc(Cc4ccc(F)cc4)cc32)[C@@H](CN2CC3(COC3)CC2=O)CN1 [Example 12, 6-{[(2R,5R)-1-(2-{6-[(4-Fluorophenyl)methyl]-3,3-dimethyl-1H,2H,3H-pyrrolo[3,2-b]pyridin-1-yl}-2-oxoethyl)-5-methylpiperazin-2-yl]methyl}-2-oxa-6-azaspiro[3.4]octan-7-one L-lactate] | 8.15 | > 6.00 | 42% | – | – | –
11 | C[C@@H]1CN(CC(=O)N2CC(C)(C)c3ncc(Cc4ccc(F)cc4)cc32)[C@@H](CN2Cc3ccncc3C2=O)CN1 [Example 19, 2-{[(2R,5R)-1-(2-{6-[(4-Fluorophenyl)methyl]-3,3-dimethyl-1H,2H,3H-pyrrolo[3,2-b]pyridin-1-yl}-2-oxoethyl)-5-methylpiperazin-2-yl]methyl}-1H,2H,3H-pyrrolo[3,4-c]pyridin-3-one, dihydrochloride] | 8.62 | > 6.00 | 64% | – | – | –
12 | C[C@@H]1CN(CC(=O)N2CC(C)(C)c3nnc(Cc4ccc(F)cc4F)cc32)[C@@H](CN2Cc3cc(F)ccc3C2=O)CN1 [Example 103, 2-{[(2R,5R)-1-(2-{3-[(2,4-Difluorophenyl)methyl]-7,7-dimethyl-5H,6H,7H-pyrrolo[3,2-c]pyridazin-5-yl}-2-oxoethyl)-5-methylpiperazin-2-yl]methyl}-5-fluoro-2,3-dihydro-1H-isoindol-1-one dihydrochloride] | – | – | – | – | – | 9.74
13 | C[C@@H]1CN(CC(=O)N2CC(C)(C)c3nnc(Cc4ccc(F)cc4F)cc32)[C@@H](CN2Cc3c(F)cccc3C2=O)CN1 [Example 104, 2-{[(2R,5R)-1-(2-{3-[(2,4-Difluorophenyl)methyl]-7,7-dimethyl-5H,6H,7H-pyrrolo[3,2-c]pyridazin-5-yl}-2-oxoethyl)-5-methylpiperazin-2-yl]methyl}-4-fluoro-2,3-dihydro-1H-isoindol-1-one dihydrochloride] | – | – | – | – | – | 9.92
14 | C[C@@H]1CN(CC(=O)N2CC(C)(C)c3nnc(Cc4ccc(F)cc4F)cc32)[C@@H](CN2Cc3cc(C#N)ccc3C2=O)CN1 [Example 109, 2-{[(2R,5R)-1-(2-{3-[(2,4-Difluorophenyl)methyl]-7,7-dimethyl-5H,6H,7H-pyrrolo[3,2-c]pyridazin-5-yl}-2-oxoethyl)-5-methylpiperazin-2-yl]methyl}-1-oxo-2,3-dihydro-1H-isoindole-5-carbonitrile dihydrochloride] | – | – | – | – | – | 9.19
15 | C[C@@H]1CN(CC(=O)N2CC(C)(C)c3nnc(Cc4ccc(F)cc4F)cc32)[C@@H](CN2Cc3ccc(C#N)cc3C2=O)CN1 [Example 114, 2-{[(2R,5R)-1-(2-{3-[(2,4-Difluorophenyl)methyl]-7,7-dimethyl-5H,6H,7H-pyrrolo[3,2-c]pyridazin-5-yl}-2-oxoethyl)-5-methylpiperazin-2-yl]methyl}-3-oxo-2,3-dihydro-1H-isoindole-5-carbonitrile dihydrochloride] | – | – | – | – | – | 8.85
16 | C[C@@H]1CN(CC(=O)N2CC(C)(C)c3nnc(Cc4ccc(F)cc4F)cc32)[C@@H](CN2Cc3ccc(O)cc3C2=O)CN1 [Example 115, 2-{[(2R,5R)-1-(2-{3-[(2,4-Difluorophenyl)methyl]-7,7-dimethyl-5H,6H,7H-pyrrolo[3,2-c]pyridazin-5-yl}-2-oxoethyl)-5-methylpiperazin-2-yl]methyl}-6-hydroxy-2,3-dihydro-1H-isoindol-1-one dihydrochloride] | – | – | 78% | – | – | –
17 | C[C@@H]1CN(CC(=O)N2CC(C)(C)c3ncc(Cc4ccc(F)cc4F)cc32)[C@@H](CN2Cc3ccc(O)cc3C2=O)CN1 [Example 116, 2-{[(2R,5R)-1-(2-{6-[(2,4-Difluorophenyl)methyl]-3,3-dimethyl-1H,2H,3H-pyrrolo[3,2-b]pyridin-1-yl}-2-oxoethyl)-5-methylpiperazin-2-yl]methyl}-6-hydroxy-2,3-dihydro-1H-isoindol-1-one dihydrochloride] | – | – | 79% | – | – | –
18 | C[C@@H]1CN(CC(=O)N2CC(C)(C)c3nnc(Cc4ccc(F)cc4F)cc32)[C@@H](CN2Cc3c(O)cccc3C2=O)CN1 [Example 117, 2-{[(2R,5R)-1-(2-{3-[(2,4-Difluorophenyl)methyl]-7,7-dimethyl-5H,6H,7H-pyrrolo[3,2-c]pyridazin-5-yl}-2-oxoethyl)-5-methylpiperazin-2-yl]methyl}-4-hydroxy-2,3-dihydro-1H-isoindol-1-one dihydrochloride] | – | – | 78% | – | – | –
19 | C[C@@H]1CN(CC(=O)N2CC(C)(C)c3nnc(Cc4ccc(F)cc4F)cc32)[C@@H](CN2Cc3c(C#N)cccc3C2=O)CN1 [Example 119, 2-{[(2R,5R)-1-(2-{3-[(2,4-Difluorophenyl)methyl]-7,7-dimethyl-5H,6H,7H-pyrrolo[3,2-c]pyridazin-5-yl}-2-oxoethyl)-5-methylpiperazin-2-yl]methyl}-1-oxo-2,3-dihydro-1H-isoindole-4-carbonitrile dihydrochloride] | 8.12 | > 6.00 | – | – | – | –
